For data set [1] the following is noted: 72 h.
The format of data set [2] is binding. As for the experimental part: A composition of the invention can comprise SAE-CD, corticosteroid, aqueous liquid carrier, and an antihistamine. In some embodiments, the composition contains SAE-CD, budesonide, water (or aqueous buffer) and azelastine. Example 14 details the preparation of such a composition. Other solutions of azelastine in buffer with varying amounts of SAE-CD, in the absence of budesonide, were prepared and scanned by UV Spectrometer. The change in absorption as a function of SAE-CD concentration was plotted and used to determine the equilibrium binding constant of azelastine with SAE-CD, according to the Benesi-Hildebrand equation. […] The binding constant for budesonide under similar conditions was determined to be about 1000; therefore, azelastine will compete with budesonide, or another corticosteroid, for binding to SAE-CD. Accordingly, the amount of SAE-CD present can be increased to permit complete dissolution of both drugs.
(§1) The equilibrium binding constant of the corticosteroid can change when a second active agent is present in a composition of the invention. Since azelastine hydrochloride (AZ-HCl) has an approximately 10-fold higher binding constant for SBE-β-CD than does budesonide (BUD), the amount of SBE-β-CD present in an aqueous composition of the three needs to be sufficient to solubilize both drugs. Example 19 details a procedure for determination of the phase solubility of budesonide in the presence of varying amounts of azelastine. The results are depicted in FIGS. 11A (for SBE-β-CD) and 11B (for SBE-β-CD and SBE-γ-CD). […] FIG. 11B is a chart of the phase solubility of BUD as a function of SBE-β-CD or SBE-γ-CD concentration in solution using various different concentrations of AZ-HCl (1.00-2.75 mg.mL). […] Thus, increasing the amount of AZ-HCl in the solution decreases the overall solubility of BUD. […] Therefore, it is advantageous to prepare solution compositions of these combinations using SBE-γ-CD due to the efficiency of interaction so as to require less of one SAExCD versus another different SAEyCD to solubilize similar amounts of actives in the presence of each other.

Data set [3] is described as follows: pH and temperature stability of azelastine with and without CAPTISOL (Example 16). The class given is physicochemical. The note with it: sixteen weeks, 25, 40, 60° C., pH 4, 5, 6. An excerpt:
SAE-CD is also capable of stabilizing a second active agent included in the composition. Example 16 details a procedure for evaluating the stability of azelastine in the presence of SAE-CD at varying temperatures and in solutions of different pH's. The results are depicted in FIGS. 10A to 10C. The SAE-CD stabilized the azelastine for the period of sixteen weeks regardless of the temperature or pH of the solution. The lower the temperature, the greater the stabilization.
The pH and temperature stability of an aqueous liquid composition comprising SAE-CD, azelastine, and buffer were determined as follows.
Stock citrate solutions (sodium citrate (3 mM) and citric acid solution (3 mM); 500 mL each) were prepared. The citrate solutions were combined and titrated to prepare stock buffered solutions (at least 150 mL each) having a pH of 4, 5, or 6. A stock solution of azelastine hydrochloride (5 mg/mL) in water was prepared. Assay solutions comprising CAPTISOL, azelastine and buffer were prepared by mixing CAPTISOL (1.4 g) and stock solution of azelastine (7.5 mL) in stock buffered solution (QS to final volume of 75 mL for each different pH). Assay solutions comprising azelastine and buffer were prepared by mixing stock solution of azelastine (7.5 mL) and stock buffered solution (67.5 mL, or QS to final volume of 75 mL). […]

The format of data set [4] is binding.
Source text: as §1
The source holds these as a separate data set.

These results are taken from patent US12370352B2, “Nasal and ophthalmic delivery of aqueous corticosteroid solutions” (CyDex Pharmaceuticals, Inc., priority 2007, dated 2025).

Each structure is given as a SMILES string.

`C[C@@H]1C[C@H]2[C@@H]3CCC4=CC(=O)C=C[C@]4(C)[C@@]3(Cl)[C@@H](O)C[C@]2(C)[C@@]1(O)C(=O)CCl` [Mometasone, mometasone]: in data set [1], the “Steroid solubility (intrinsic)” value stood at 0 µM.
`CN1CCCC(n2nc(Cc3ccc(Cl)cc3)c3ccccc3c2=O)CC1` (stereo not drawn) [azelastine, 4-[(4-chlorophenyl)methyl]-2-(1-methylazepan-4-yl)-phthalazin-1-one]: in data set [2], the “Equilibrium complex stability constant with SBE-β-CD” value is ~10000 M⁻¹ and the “Equilibrium complex stability constant with SBE-β-CD relative to SBE-γ-CD” value is recorded as “about 5 times”. In addition, the “Equilibrium binding constant with CAPTISOL” value in data set [2] (pH 4.5) is listed as “approximately 10,000”. In addition, in data set [3], the “Stability in the presence of SAE-CD” value is “stabilized”. Further, the “Equilibrium complex stability constant with SBE-γ-CD” value in data set [4] was determined as 2200 M⁻¹.
